This note sets out measurements from patent US20090306149A1, “USE OF BIARYLCARBOXAMIES IN THE TREATMENT OF HEDGEHOG PATHWAY-RELATED DISORDERS” (priority 2006, published 2009).

In one assay the target is Smoothened (Homo sapiens, UniProt Q99835). Put plainly: Smo binding assay, displacement of a small molecule agonist of Smoothened, filter binding format. The text has this: A Smo binding assay was developed using radio-labeled smoothened agonist for compound competition.
Table 1, infra; lists the IC50 for displacement of a small molecule agonist of Smoothened determined in a filter binding format.

The subject of assay [1] is Shh-mediated pathway activation (Gli-luciferase activity of TMHh12 cells). As to the kind of experiment: Gli-Luc reporter assay for Hh pathway inhibition in TMHh12 cells in the presence of Shh protein. The format is cell-based. The settings on record: Mus musculus, read-out: EC50 to block Shh-mediated pathway activation. How it is done:
(§1) TM3 cells (mouse) transfected with a new proprietary reporter construct (pTA-8xGli-Luc). The pTA-8xGli-Luc reporter produces approx. 4 fold more luciferase activity than classical 8xGli-LUC. A highly responsive stable clone has been selected (TMHh12) with >10-fold signal/noise ratio and <10% CV in 384 well format.
Gli-Luc Reporter Assay for Hh Pathway Inhibition
Gli-luciferase activity of TMHh12 cells was determined in the presence of Shh protein.

The test system of assay [2] is gli-luciferase activity (Hh pathway) in TMHh12 cells. As to the kind of experiment: "IC50 shift" gli-luciferase reporter assay in TMHh12 cells with a small molecule Smo agonist. Type of assay: cell-based, mouse. The settings on record: Mus musculus, TMHh12, TMHh12 cells. How it is done: as §1
“IC50 shift” assays in TMHh12 cells. IC50 for antagonism of gli-luciferase activity was tested in the presence of increasing concentrations of a small molecule agonist which binds to Smo with 1 nM affinity and activates the Hh pathway.
Table 1 lists the IC50 of antagonists determined in the presence of different (1 nM and 25 nM) concentrations of a small agonist of Smoothened.
(A reporter such as luciferase makes a cellular process visible.)

[3] abbreviates: 1 nM small molecule Smo agonist, read-out: Gli_luc (1 nM Smo agonist) IC50.
[4] abbreviates: 25 nM small molecule Smo agonist, read-out: Gli_luc (25 nM Smo agonist) IC50.

Like-named read-outs stand apart in the source and are kept apart here.

Smoothened, sequence (Q99835 28-787): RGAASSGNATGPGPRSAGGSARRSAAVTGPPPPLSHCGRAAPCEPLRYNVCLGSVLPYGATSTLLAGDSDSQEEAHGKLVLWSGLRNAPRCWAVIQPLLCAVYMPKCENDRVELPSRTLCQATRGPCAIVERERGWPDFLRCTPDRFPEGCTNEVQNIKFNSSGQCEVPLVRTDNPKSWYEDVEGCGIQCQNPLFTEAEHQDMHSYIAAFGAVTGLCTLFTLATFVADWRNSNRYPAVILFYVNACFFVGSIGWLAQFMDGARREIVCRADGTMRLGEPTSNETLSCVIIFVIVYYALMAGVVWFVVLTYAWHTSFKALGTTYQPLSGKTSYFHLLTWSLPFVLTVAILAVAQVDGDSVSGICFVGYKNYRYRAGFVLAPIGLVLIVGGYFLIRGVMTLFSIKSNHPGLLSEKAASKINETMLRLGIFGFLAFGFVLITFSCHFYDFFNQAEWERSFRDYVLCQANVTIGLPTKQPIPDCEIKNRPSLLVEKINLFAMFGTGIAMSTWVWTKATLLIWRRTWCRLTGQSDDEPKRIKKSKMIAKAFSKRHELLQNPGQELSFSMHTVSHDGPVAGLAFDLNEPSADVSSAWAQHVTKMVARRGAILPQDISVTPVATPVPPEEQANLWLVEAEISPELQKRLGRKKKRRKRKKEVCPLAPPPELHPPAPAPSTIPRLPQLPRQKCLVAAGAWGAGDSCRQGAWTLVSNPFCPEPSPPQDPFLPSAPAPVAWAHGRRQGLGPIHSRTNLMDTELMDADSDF

Regarding `Cc1cccc(C(=O)Nc2ccc3c(c2)C[C@@H](NCc2ccccn2)C3)c1-c1ccc(C(F)(F)F)cc1` [Example 6, 6-Methyl-4′-trifluoromethyl-biphenyl-2-carboxylic acid {(S)-2-[(pyridin-2-ylmethyl)-amino]-indan-5-yl}-amide], the IC50 on Smoothened was 15 nM; in assay [2] (setting [3]), 19 nM; in assay [2] (setting [4]), 279 nM. In addition, the EC50 in assay [1] was 9.4 nM.

Regarding `CS(=O)(=O)NC1Cc2ccc(NC(=O)c3cccc(F)c3-c3ccc(C(F)(F)F)cc3)cc2C1` (centres unmarked) [Example 92], the results for the IC50 (at Smoothened; in assay [2] (setting [3]); in assay [2] (setting [4])) were 60 nM, 1010 nM and 1300 nM, respectively.

As for `CC(=O)Nc1ccc(CN[C@H]2Cc3ccc(NC(=O)c4cccc(C)c4-c4ccc(C(F)(F)F)cc4)cc3C2)cc1` [Example 22], the IC50 came to 444 nM at Smoothened, 456 nM in assay [2] (setting [3]) and 3260 nM in assay [2] (setting [4]).

`Cc1ccc(C(=O)Nc2ccc3c(c2)C[C@H](NCc2ccccn2)C3)c(-c2ccccc2)c1` [Example 73]: the figures for the IC50 (at Smoothened; in assay [2] (setting [3]); in assay [2] (setting [4])) were 936 nM, 99 nM and 2240 nM, respectively.

Turning to `Cc1cccc(C(=O)Nc2ccc3c(c2)CC(NCc2cccnc2)C3)c1-c1ccc(C(F)(F)F)cc1` (centres unmarked) [Example 66], the IC50 was found to be 593 nM on Smoothened, 246 nM in assay [2] (setting [3]) and 10000 nM in assay [2] (setting [4]).

Turning to `COc1ccc(OC)c(CN[C@H]2Cc3ccc(NC(=O)c4cccc(C)c4-c4ccc(C(F)(F)F)cc4)cc3C2)c1` [Example 21], the IC50 at Smoothened was found to be 1 nM; in assay [2] (setting [3]), 254 nM; in assay [2] (setting [4]), 646 nM.

`Cc1cccc(C(=O)Nc2ccc3c(c2)C[C@@H](NCc2ccc4c(c2)OC(F)(F)O4)C3)c1-c1ccc(C(F)(F)F)cc1` [Example 25]: the IC50 came out at 90 nM at Smoothened, 409 nM in assay [2] (setting [3]) and 2500 nM in assay [2] (setting [4]).

Turning to `O=C(Nc1ccc2c(c1)CC(NCCc1ccccc1)C2)c1ccccc1-c1ccc(C(F)(F)F)cc1` (centres unmarked) [Example 53], the IC50 is 7910 nM at Smoothened, 261 nM in assay [2] (setting [3]) and 1800 nM in assay [2] (setting [4]).

Consider `Cc1cccc(C(=O)Nc2ccc3c(c2)C[C@@H](NCc2ccc(Cl)o2)C3)c1-c1ccc(C(F)(F)F)cc1` [Example 14], for which the IC50 at Smoothened was 1 nM; in assay [2] (setting [3]) it was under 5 nM; in assay [2] (setting [4]) it was 37 nM.

`Cc1cccc(C(=O)Nc2ccc3c(c2)C[C@@H](NCc2scnc2C)C3)c1-c1ccc(C(F)(F)F)cc1` [Example 10]: the IC50 on Smoothened worked out at 137 nM; in assay [2] (setting [3]), 290 nM; in assay [2] (setting [4]) it was 1340 nM.

Take `Cc1cccc(C(=O)Nc2ccc3c(c2)CC(NCc2ccoc2)C3)c1-c1ccc(C(F)(F)F)cc1` (centres unmarked) [Example 63]: the IC50 came to 493 nM on Smoothened, 686 nM in assay [2] (setting [3]) and 14000 nM in assay [2] (setting [4]).

Take `Cc1cccc(C(=O)Nc2ccc3c(c2)CC(NCc2ccccc2F)C3)c1-c1ccc(C(F)(F)F)cc1` (centres unmarked) [Example 71]: the IC50 at Smoothened was found to be 11 nM; in assay [2] (setting [3]), 5 nM; in assay [2] (setting [4]), 235 nM.

On to `Cc1cccc(C(=O)Nc2ccc3c(c2)C[C@@H](NCc2cccnc2Cl)C3)c1-c1ccc(C(F)(F)F)cc1` [Example 30], for which the 50% inhibitory concentration (IC50) on Smoothened was 39 nM; in assay [2] (setting [3]), 136 nM; in assay [2] (setting [4]), 1440 nM.

Regarding `CCCCS(=O)(=O)NC1Cc2ccc(NC(=O)c3cccc(C)c3-c3ccc(C(F)(F)F)cc3)cc2C1` (centres unmarked) [Example 102], the 50% inhibitory concentration (IC50) at Smoothened was determined as 217 nM; in assay [2] (setting [3]) it was 1900 nM.

With `Cc1cccc(C(=O)Nc2ccc3c(c2)CCC(NS(C)(=O)=O)CC3)c1-c1ccc(C(F)(F)F)cc1` (centres unmarked) [Example 103], the IC50 was determined as 3200 nM at Smoothened, 4780 nM in assay [2] (setting [3]) and 10200 nM in assay [2] (setting [4]).

Take `Cc1cccc(C(=O)Nc2ccc3c(c2)CC(NCc2nc4ccccc4n2C)C3)c1-c1ccc(C(F)(F)F)cc1` (centres unmarked) [Example 57]: the IC50 at Smoothened is 28 nM; in assay [2] (setting [3]) it was 3060 nM; in assay [2] (setting [4]) it was 17400 nM.

Regarding `Cc1cccc(C(=O)Nc2ccc3c(c2)CCC(NS(=O)(=O)c2ccccc2F)CC3)c1-c1ccc(C(F)(F)F)cc1` (centres unmarked) [Example 106], the IC50 is 330 nM at Smoothened and 5960 nM in assay [2] (setting [3]).

`Cc1cccc(C(=O)Nc2ccc3c(c2)CCC(NCc2ccccn2)CC3)c1-c1ccc(C(F)(F)F)cc1` (centres unmarked) [Example 68]: the values for the IC50 (on Smoothened; in assay [2] (setting [3]); in assay [2] (setting [4])) were 367 nM, 138 nM and 4860 nM, respectively.

As usually defined, the IC50 is the point on the concentration scale where inhibition reaches its midpoint. Broadly, the EC50 is the midpoint of the concentration-response curve.
